Experimental data taken from paper PMC6697720, “Saturation of acyl chains converts cardiolipin from an antagonist to an activator of Toll-like receptor-4” (Cellular and Molecular Life Sciences: CMLS, 2019).

What was measured:
human PBMCs = experiment: LPS-induced TNF-α and IL-1β release in human PBMCs; format: cell-based; details: LPS 100 ng/mL
Description: Blood from healthy volunteers was collected upon informed consent. PBMCs were obtained by Ficoll gradient centrifugation in Histopaque-1077 (Sigma-Aldrich, St Louis, Missouri, United States) using SepMate™ isolation tubes from STEMCELL™ according to the manufacturer’s instructions. Isolated PBMCs were resuspended in RPMI 1640 supplemented with 10% heat-inactivated FBS.
(§1) 100.000 of freshly isolated PBMCs or monocytes were mixed with stimulants to a final volume of 160 μL/well in round bottom 96-well plates.
(§2) After stimulation, supernatants were collected, centrifuged, and assayed for cytokine secretion, while cells were assayed for viability.
TNF-α and IP-10 were quantified in cell supernatants using DuoSet ELISA kits from R&D Systems and human IL-1β using Instant ELISA™ Kit from Invitrogen, according to the manufacturer’s instructions. Absorbance was read with a BioTek Synergy HT Microplate Readers. […]

primary human monocytes = experiment: TNF-α and IL-1β secretion in primary human monocytes incubated with CL; format: cell-based; details: with NLRP3 inhibitor MCC950
Description: Human monocytes were isolated from PBMCs by immunomagnetic negative selection using the EasySep™ human monocyte enrichment kit without CD16 depletion (STEMCELL™ Technologies).
as §1, §2
TNF-α and IP-10 were quantified in cell supernatants using DuoSet ELISA kits from R&D Systems and human IL-1β using Instant ELISA™ Kit from Invitrogen, according to the manufacturer’s instructions. Absorbance was read with a BioTek Synergy HT Microplate Readers.
Fig. 3 Saturated but not unsaturated CLs have pro-inflammatory properties. a RAW-Blue™ cells were incubated overnight with the indicated amount of CL or LPS, supernatants were collected, and NF-κB activation quantified via Quanti-Blue™ test and reported here as fold induction as compared to control. Unpaired t test: differences with respect to the control (Ctrl) are not significant if p > 0.05 (no symbol); *p ≤ 0.0007. b Immortalized BMDM cells were incubated overnight with the indicated amount of CL or LPS; supernatants were collected and TNF-α quantified via ELISA assay. c, d Primary human monocytes were incubated overnight with the indicated amount of CL or LPS with or without the NLRP3 inhibitor MCC950, supernatants were collected, and TNF-α and IL-1β were quantified via ELISA assay. Graphs are representative of experiments from six different donors. Unpaired t test: differences with respect to the control (Ctrl) are not significant if p > 0.05 (no symbol); *p ≤ 0.021. Each bar represents the mean + standard deviation of three biological replicates (n = 3). Graphs are representative of at least three independent experiments
C18:0 and C18:2 CLs’ pro-inflammatory activities were validated in primary monocytes isolated from human donor blood. C18:0 CL but not C18:2 CL reproduced LPS activity inducing TNF-α and IL-1β secretion in a dose-dependent manner (Fig. 3c, d).

SMILES: CC(C)(O)c1coc(S(=O)(=O)NC(=O)Nc2c3c(cc4c2CCC4)CCC3)c1 [MCC950]
- inhibition of LPS-induced TNF-α secretion (human PBMCs; 4 h): not
- inhibition of LPS-induced IL-1β secretion (human PBMCs; 16 h): able to inhibit
- inhibition of saturated CL-induced IL-1β secretion (primary human monocytes): inhibited
